Here are results for five molecules from PMC5408263, “Four Aromatic Sulfates with an Inhibitory Effect against HCV NS3 Helicase from the Crinoid Alloeocomatella polycladia” (Marine Drugs, 2017).

In data set [1] the target is T1, HCV NS3 helicase (Hepatitis C virus genotype 1a, UniProt P27958).
T1 construct: HCV NS3 protein with helicase activity was expressed and purified as previously described; made in house
Kind of data set: fluorescence helicase assay based on FRET. The data set is classed as biochemical. The conditions noted are these: dsRNA substrate labeled with Alexa Fluor 700 and Black Hole Quencher 3; 240 nM NS3 helicase; 30 min at 37 °C; triplicate; read-out: IC50 against NS3 helicase. As for the experimental part: For enzymatic inhibition, we used the fluorescence helicase assay based on fluorescence resonance energy transfer (FRET) to examine NS3 helicase inhibition by Compounds 1–4. […] The measured values in triplicate for each concentration of Compounds 1–4 were averaged and divided by the mean value from the negative control sample that contains DMSO instead of Compounds 1–4 to show the NS3 helicase activity as a percentage.
The fluorescence helicase assay based on FRET was conducted as we previously described, except that we used a DNA capture strand rather than an RNA capture strand for which the sequence was complementary to that of the quencher strand. HCV NS3 protein with helicase activity was expressed and purified as previously described. In the assay, when NS3 helicase unwinds the dsRNA substrate, the DNA capture strand binds to the unwound single-stranded RNA (ssRNA) substrate labeled with Black Hole Quencher 3 and prevents the ssRNA substrate from reannealing to the complementary ssRNA substrate labeled with Alexa Fluor 700. […] Thus, the NS3 helicase activity can be monitored by the real-time measurement of the fluorescence intensity of Alexa Fluor 700 through 30 min incubation at 37 °C by using a SpectraMax Gemini XS microplate reader (Molecular Devices, Sunnyvale, CA, USA). The reaction mixture contained 25 mM MOPS-NaOH (pH 6.5), 3 mM MgCl2, 2 mM dithiothreitol, 4 U RNasin (Promega, Madison, WI, USA), 50 nM dsRNA substrate, 400 nM DNA capture strand, 5 mM ATP, a serial dilution of Compounds 1–4 dissolved in DMSO, and 240 nM NS3 helicase in a total reaction volume of 20 μL. The NS3 helicase activity was calculated as the initial reaction velocity relative to that of the control (in the absence of Compounds 1–4 but in the presence of DMSO). The IC50 value was calculated using KaleidaGraph (Synergy Software, Reading, PA, USA) by fitting plots of relative helicase activity (%) vs. [I] using Equation (1):(1) % Activity = 100/1 + ([I]/IC50)^h where h is the Hill coefficient, and [I] is the inhibitor concentration.

The test system of data set [2] is HCV subgenomic replicon cell line Huh7/Rep-Feo (genotype 1b, N strain). Kind of data set: HCV replicon assay (luciferase). The data set is classed as cell-based. The conditions noted are these: Hepatitis C virus, Huh-7, 72 h post-treatment, luciferase activity, read-out: EC50 (50% effective concentration), suppression of HCV replication. The method, then: (§1) Further, we investigated the effect of Compounds 2 and 3 on both viral replication and cell growth in the HCV subgenomic replicon cell line Huh7/Rep-Feo (genotype 1b, N strain). […] This was likely due to its low membrane permeability caused by the negatively charged sulfate group within the molecule in aqueous solution.
The Huh7/Rep-Feo cell line harboring the subgenomic replicon RNA of the N strain (genotype 1b) was seeded at 2 × 10^4 cells per well in a 48-well plate and incubated at 37 °C for 24 h. A serial dilution of Compounds 2 and 3 was added to each well of the plate. The treated cells were harvested 72 h post-treatment and lysed in cell culture lysis reagent (Promega, Madison, WI, USA). Luciferase activity in the harvested cells was estimated with a luciferase assay system (Promega). The resulting luminescence was detected by a Luminescencer-JNR AB-2100 (ATTO, Tokyo, Japan). The anti-HCV activity was calculated as the intensity of the luminescence relative to that of the control (in the absence of Compounds 2 and 3 but in the presence of DMSO).

Data set [3] in a line: Cytotoxicity assay (MTS). The data set is classed as cell-based. The conditions noted are these: human, Huh7/Rep-Feo cells, 72 h post-treatment, read-out: CC50 (50% cytotoxicity concentration). The method, then: as §1
Huh7/Rep-Feo cells were seeded at a density of 1 × 10^4 cells per well in a 96-well plate and then incubated at 37 °C for 24 h. Compounds 2 and 3 were added to the culture medium to yield various concentrations and were then harvested 72 h post-treatment. Cell viability was determined by a dimethyl thiazolcarboxymethoxyphenyl sulfophenyltetrazolium (MTS) assay using a CellTiter 96 aqueous one-solution cell proliferation assay kit (Promega), according to the manufacturer’s protocol.

Data set [4] has as its system hepatitis C virus (HCV) NS3 helicase. The conditions noted are these: authentic molecule; read-out: IC50 against NS3 helicase; cited from earlier work.

The structures appear in SMILES notation. Structures can show the parent of a compound that is named as a salt.

T1 sequence (P27958 1027-1657): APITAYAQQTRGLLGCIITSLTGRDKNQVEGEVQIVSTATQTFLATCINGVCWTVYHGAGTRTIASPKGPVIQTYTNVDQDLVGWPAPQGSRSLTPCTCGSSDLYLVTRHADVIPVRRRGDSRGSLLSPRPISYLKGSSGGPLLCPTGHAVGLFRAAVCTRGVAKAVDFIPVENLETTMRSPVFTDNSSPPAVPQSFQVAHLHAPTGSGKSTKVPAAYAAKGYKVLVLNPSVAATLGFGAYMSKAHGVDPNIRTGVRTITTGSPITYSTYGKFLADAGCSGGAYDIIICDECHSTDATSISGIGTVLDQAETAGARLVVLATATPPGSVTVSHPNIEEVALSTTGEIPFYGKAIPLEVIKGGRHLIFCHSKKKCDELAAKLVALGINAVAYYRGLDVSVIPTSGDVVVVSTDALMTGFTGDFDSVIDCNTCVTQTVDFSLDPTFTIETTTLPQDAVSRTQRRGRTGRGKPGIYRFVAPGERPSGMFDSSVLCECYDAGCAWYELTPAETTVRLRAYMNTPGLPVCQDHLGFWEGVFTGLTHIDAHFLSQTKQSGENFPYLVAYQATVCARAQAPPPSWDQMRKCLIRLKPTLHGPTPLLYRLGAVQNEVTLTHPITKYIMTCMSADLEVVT

As a reminder, the IC50 is the concentration needed to halve the response being measured. Consider `Cc1cc(O)c2c(=O)c3c(O)cc(OS(=O)(=O)O)cc3cc-2o1` [Compound 1], for which the IC50 in data set [1] came to 71 µM. `CCCc1cc(O)c2c(=O)c3c(O)c(-c4c(OS(=O)(=O)O)cc(O)c5c(=O)c6c(O)cc(C)oc-6cc45)c(OS(=O)(=O)O)cc3cc-2o1` [Compound 4]: the half-inhibitory concentration (IC50) in data set [1] worked out at 5 µM.

On to `Cc1cc(O)c2c(=O)c3c(O)c(-c4c(OS(=O)(=O)O)cc(O)c5c(=O)c6c(O)cc(C)oc-6cc45)c(OS(=O)(=O)O)cc3cc-2o1` [Compound 3], for which the IC50 in data set [1] came to 7 µM. The EC50 in data set [2] stood at 67 µM. In addition, the CC50 at 72 h in data set [3] came to 70 µM. As for `CCCc1cc(O)c2c(=O)c3c(O)cc(OS(=O)(=O)O)cc3cc-2o1` [Compound 2], the half-inhibitory concentration (IC50) in data set [1] came out at 95 µM. In addition, the EC50 in data set [2] amounted to 57 µM. Besides, the CC50 at 72 h in data set [3] is 52 µM. Take `CC(C)CCC[C@@H](C)[C@H]1CC[C@H]2[C@@H]3CC=C4C[C@@H](OS(=O)(=O)O)CC[C@]4(C)[C@H]3CC[C@]12C` [cholesterol sulfate]: in data set [4], the IC50 was 1.7 ± 0.2 µM.
